Measured values from the supplement of paper PMC10307832.

Key:
Assay in all cases: relative viability (nuclei count vs DMSO), 5 days (fraction); higher = more cells survive
HCC-78 = system: HCC-78
Outline: (§1)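 Dosing by pin tool came one day after lung cancer cell lines were seeded in 1536-well plates, using either one drug or a fixed anchor-drug dose plus five library-drug doses (not always all listed) in √10 steps. After 5 days, nuclei were counted on 4× images. Relative viability is treated-well nuclei count divided by vehicle-well nuclei count, and values are medians of duplicate plates.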

NCI-H322M = system: NCI-H322M
Outline: as §1

SK-MES-1 = system: SK-MES-1
Outline: as §1

UMC-11 = system: UMC-11
Outline: as §1

LC-2-ad = system: LC-2-ad
Outline: as §1

ChaGo-K-1 = system: ChaGo-K-1
Outline: as §1

LCLC-97TM1 = system: LCLC-97TM1
Outline: as §1

NCI-H661 = system: NCI-H661
Outline: as §1

LK-2 = system: LK-2
Outline: as §1

NCI-H1944 = system: NCI-H1944
Outline: as §1

LXF-289 = system: LXF-289
Outline: as §1

BEN = system: BEN
Outline: as §1

HCC-15 = system: HCC-15
Outline: as §1

H3255 = system: H3255
Outline: as §1

NCI-H1666 = system: NCI-H1666
Outline: as §1

NCI-H2087 = system: NCI-H2087
Outline: as §1

LU99A = system: LU99A
Outline: as §1

NCI-H2342 = system: NCI-H2342
Outline: as §1

NCI-H650 = system: NCI-H650
Outline: as §1

PC-3 [JPC-3] = system: PC-3 [JPC-3]
Outline: as §1

NCI-H838 = system: NCI-H838
Outline: as §1

NCI-H1651 = system: NCI-H1651
Outline: as §1

NCI-H358 = system: NCI-H358
Outline: as §1

NCI-H596 = system: NCI-H596
Outline: as §1

C[C@@H]1CN(CC(=O)Nc2ccc3c(c2)Cc2cccc(-c4cc(=O)cc(N5CCOCC5)o4)c2S3)C[C@H](C)O1 + Nc1ncn([C@H]2C[C@H](O)[C@@H](CO)O2)c(=O)n1 [Decitabine] (partner 2 µM)
relative viability (HCC-78; first compound 0.04 µM): 0.65
relative viability (HCC-78; first compound 0.1265 µM): 0.676
relative viability (HCC-78; first compound 0.4 µM): 0.688
relative viability (HCC-78; first compound 4 µM): 0.732
relative viability (NCI-H322M; first compound 0.04 µM): 0.526
relative viability (NCI-H322M; first compound 0.1265 µM): 0.723
relative viability (NCI-H322M; first compound 0.4 µM): 0.657
relative viability (NCI-H322M; first compound 4 µM): 0.638
relative viability (SK-MES-1; first compound 0.04 µM): 0.356
relative viability (SK-MES-1; first compound 0.1265 µM): 0.368
relative viability (SK-MES-1; first compound 0.4 µM): 0.433
relative viability (SK-MES-1; first compound 4 µM): 0.446
relative viability (UMC-11; first compound 0.04 µM): 0.477
relative viability (UMC-11; first compound 0.1265 µM): 0.62
relative viability (UMC-11; first compound 0.4 µM): 0.728
relative viability (UMC-11; first compound 4 µM): 0.513
relative viability (LC-2-ad; first compound 0.04 µM): 0.939
relative viability (LC-2-ad; first compound 0.1265 µM): 0.786
relative viability (LC-2-ad; first compound 0.4 µM): 0.792
relative viability (LC-2-ad; first compound 4 µM): 0.628
relative viability (ChaGo-K-1; first compound 0.04 µM): 0.498
relative viability (ChaGo-K-1; first compound 0.1265 µM): 0.531
relative viability (ChaGo-K-1; first compound 0.4 µM): 0.56
relative viability (ChaGo-K-1; first compound 4 µM): 0.455
relative viability (LCLC-97TM1; first compound 0.1265 µM): 0.231
relative viability (LCLC-97TM1; first compound 0.4 µM): 0.279
relative viability (LCLC-97TM1; first compound 4 µM): 0.273
relative viability (NCI-H661; first compound 0.04 µM): 0.496
relative viability (NCI-H661; first compound 0.1265 µM): 0.534
relative viability (NCI-H661; first compound 0.4 µM): 0.623
relative viability (NCI-H661; first compound 4 µM): 0.65
relative viability (LK-2; first compound 0.04 µM): 0.258
relative viability (LK-2; first compound 0.1265 µM): 0.279
relative viability (LK-2; first compound 0.4 µM): 0.198
relative viability (LK-2; first compound 4 µM): 0.257
relative viability (NCI-H1944; first compound 0.1265 µM): 0.438
relative viability (NCI-H1944; first compound 0.4 µM): 0.466
relative viability (NCI-H1944; first compound 4 µM): 0.457
relative viability (LXF-289; first compound 0.04 µM): 0.374
relative viability (LXF-289; first compound 0.1265 µM): 0.354
relative viability (LXF-289; first compound 0.4 µM): 0.419
relative viability (LXF-289; first compound 4 µM): 0.419
relative viability (BEN; first compound 0.04 µM): 0.702
relative viability (BEN; first compound 0.1265 µM): 0.696
relative viability (BEN; first compound 0.4 µM): 0.81
relative viability (BEN; first compound 4 µM): 0.735
relative viability (HCC-15; first compound 0.04 µM): 0.621
relative viability (HCC-15; first compound 0.1265 µM): 0.594
relative viability (HCC-15; first compound 0.4 µM): 0.558
relative viability (HCC-15; first compound 4 µM): 0.59
relative viability (H3255; first compound 0.04 µM): 0.682
relative viability (H3255; first compound 0.1265 µM): 0.615
relative viability (H3255; first compound 0.4 µM): 0.558
relative viability (H3255; first compound 4 µM): 0.509
relative viability (NCI-H1666; first compound 0.04 µM): 0.744
relative viability (NCI-H1666; first compound 0.1265 µM): 0.743
relative viability (NCI-H1666; first compound 0.4 µM): 0.677
relative viability (NCI-H1666; first compound 4 µM): 0.669
relative viability (NCI-H2087; first compound 0.04 µM): 0.306
relative viability (NCI-H2087; first compound 0.1265 µM): 0.336
relative viability (NCI-H2087; first compound 0.4 µM): 0.267
relative viability (NCI-H2087; first compound 4 µM): 0.254
relative viability (LU99A; first compound 0.04 µM): 0.815
relative viability (LU99A; first compound 0.1265 µM): 0.928
relative viability (LU99A; first compound 0.4 µM): 0.859
relative viability (LU99A; first compound 4 µM): 0.851
relative viability (NCI-H2342; first compound 0.04 µM): 0.76
relative viability (NCI-H2342; first compound 0.1265 µM): 0.779
relative viability (NCI-H2342; first compound 0.4 µM): 0.71
relative viability (NCI-H2342; first compound 4 µM): 0.704
relative viability (NCI-H650; first compound 0.04 µM): 0.346
relative viability (NCI-H650; first compound 0.1265 µM): 0.336
relative viability (NCI-H650; first compound 0.4 µM): 0.377
relative viability (NCI-H650; first compound 4 µM): 0.341
relative viability (PC-3 [JPC-3]; first compound 0.04 µM): 0.789
relative viability (PC-3 [JPC-3]; first compound 0.1265 µM): 0.841
relative viability (PC-3 [JPC-3]; first compound 0.4 µM): 0.854
relative viability (PC-3 [JPC-3]; first compound 4 µM): 0.781
relative viability (NCI-H838; first compound 0.04 µM): 0.46
relative viability (NCI-H838; first compound 0.1265 µM): 0.472
relative viability (NCI-H838; first compound 0.4 µM): 0.518
relative viability (NCI-H838; first compound 4 µM): 0.492
relative viability (NCI-H1651; first compound 0.04 µM): 0.628
relative viability (NCI-H1651; first compound 0.1265 µM): 0.628
relative viability (NCI-H1651; first compound 0.4 µM): 0.585
relative viability (NCI-H1651; first compound 4 µM): 0.599
relative viability (NCI-H358; first compound 0.04 µM): 0.181
relative viability (NCI-H358; first compound 0.1265 µM): 0.204
relative viability (NCI-H358; first compound 0.4 µM): 0.172
relative viability (NCI-H358; first compound 4 µM): 0.14
relative viability (NCI-H596; first compound 0.04 µM): 1.01
relative viability (NCI-H596; first compound 0.1265 µM): 1.11
relative viability (NCI-H596; first compound 0.4 µM): 1.11
relative viability (NCI-H596; first compound 4 µM): 0.798
